According to ChEMBL document CHEMBL1126381, “2-carboxy indolines and indoles as potential glycine/NMDA antagonists: effect of five-membered ring conformation on affinity” (Bioorg Med Chem Lett, 1992):

How the values were obtained:
[1] = biological target: Glutamate receptor ionotropic, NMDA 1 (Rattus norvegicus, UniProt P35439); assay: Inhibition of [3H]L-689,560 binding to Glycine site of NMDA receptor of rat cortical membranes; format: cell membranes, Membrane
Mus musculus [2] = assay: In vivo activity in DBA/2 Mouse audiogenic seizure model was determined by testing number of animals protected after a dose of 100 mg/Kg i.p.; Number of animals tested 8 mice; format: functional
Mus musculus [3] = assay: In vivo activity in DBA/2 Mouse audiogenic seizure model was determined by testing number of animals protected after a dose of 50 mg/Kg i.p.; Number of animals tested 8 mice; format: functional

Row | IC50 [1] | Compound | Animals protected (Mus musculus [2]) | Animals protected (Mus musculus [3])
1 | > 100 µM | O=C(O)C[C@@H]1c2ccc(Cl)cc2N[C@H]1C(=O)O | – | –
2 | > 100 µM | O=C(O)[C@@H]1c2ccc(Cl)cc2N[C@H]1C(=O)O | – | –
3 | > 100 µM | NC(=O)[C@@H]1c2ccc(Cl)cc2N[C@H]1C(=O)O | – | –
4 | 0.036 µM | O=C(CCc1c(C(=O)O)[nH]c2cc(Cl)cc(Cl)c12)Nc1ccccc1 | – | –
5 | > 100 µM | O=C(OC[C@@H]1c2ccc(Cl)cc2N[C@H]1C(=O)O)c1ccccc1 | – | –
6 | > 300 µM | COC(=O)[C@@H]1c2ccc(Cl)cc2N[C@H]1C(=O)O | – | –
7 | > 100 µM | COC(=O)C1(C(=O)OC)c2ccc(Cl)cc2N[C@H]1C(=O)O | – | –
8 | 9 µM | O=C(O)c1[nH]c2cc(Cl)ccc2c1CO | – | –
9 | > 100 µM | O=C(O)[C@@H]1Nc2cc(Cl)ccc2[C@H]1CO | – | –
10 | 0.027 µM | Nc1ccc(CNC(=O)CCc2c(C(=O)O)[nH]c3cc(Cl)cc(Cl)c23)cc1 | 1 | –
11 | 0.81 µM | NC(=O)c1c(C(=O)O)[nH]c2cc(Cl)ccc12 | – | –

Row | Compound | IC50 [1] | Animals protected (Mus musculus [2]) | Animals protected (Mus musculus [3])
12 | O=C(O)CCc1c(C(=O)O)[nH]c2cc(Cl)cc(Cl)c12 | 0.07 µM | 6 | 0
